Measured values as given in the supplement of paper PMC10307832.

Assays:
Assay in all cases: relative viability (nuclei count vs DMSO), 5 days (fraction); higher = more cells survive
[1] = test system: 201T
Summary of the method: (§1)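 Relative viability equals treated-well nuclei counts divided by vehicle-well nuclei counts. Counts came from 4× images of lung cancer cell lines grown in 1536-well plates for 5 days after pin-tool dosing on the day after seeding. Dosing used one drug alone or a fixed anchor-drug dose plus five library-drug doses (not always all listed) in √10 steps, and values are medians of duplicate plates.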

[2] = test system: BEN
Summary of the method: as §1

[3] = test system: CAL-12T
Summary of the method: as §1

[4] = test system: H3255
Summary of the method: as §1

[5] = test system: HARA
Summary of the method: as §1

[6] = test system: HCC-15
Summary of the method: as §1

[7] = test system: HCC-827
Summary of the method: as §1

[8] = test system: LC-2-ad
Summary of the method: as §1

[9] = test system: LCLC-103H
Summary of the method: as §1

[10] = test system: LK-2
Summary of the method: as §1

[11] = test system: LU99A
Summary of the method: as §1

[12] = test system: LXF-289
Summary of the method: as §1

[13] = test system: NCI-H1437
Summary of the method: as §1

[14] = test system: NCI-H1651
Summary of the method: as §1

[15] = test system: NCI-H1792
Summary of the method: as §1

[16] = test system: NCI-H2085
Summary of the method: as §1

[17] = test system: NCI-H23
Summary of the method: as §1

[18] = test system: NCI-H2405
Summary of the method: as §1

[19] = test system: NCI-H322M
Summary of the method: as §1

[20] = test system: RERF-LC-KJ
Summary of the method: as §1

O=c1[nH]c2ccccc2n1C1CCN(CCCC(c2ccc(F)cc2)c2ccc(F)cc2)CC1 [Pimozide] + NC(=O)Nc1cc(-c2cccc(F)c2)sc1C(=O)N[C@H]1CCCNC1 [AZD7762] (partner 0.2 µM)
relative viability ([1]; first compound 0.08 µM): 0.602
relative viability ([1]; first compound 0.253 µM): 0.615
relative viability ([1]; first compound 0.8 µM): 0.541
relative viability ([1]; first compound 2.53 µM): 0.537
relative viability ([1]; first compound 8 µM): 0.652
relative viability ([2]; first compound 0.08 µM): 0.762
relative viability ([2]; first compound 0.253 µM): 0.753
relative viability ([2]; first compound 0.8 µM): 0.618
relative viability ([2]; first compound 2.53 µM): 0.713
relative viability ([2]; first compound 8 µM): 0.886
relative viability ([3]; first compound 0.08 µM): 0.64
relative viability ([3]; first compound 0.253 µM): 0.587
relative viability ([3]; first compound 0.8 µM): 0.539
relative viability ([3]; first compound 2.53 µM): 0.511
relative viability ([3]; first compound 8 µM): 0.587
relative viability ([4]; first compound 0.253 µM): 0.858
relative viability ([4]; first compound 0.8 µM): 0.777
relative viability ([4]; first compound 2.53 µM): 0.838
relative viability ([4]; first compound 8 µM): 0.879
relative viability ([5]; first compound 0.08 µM): 0.21
relative viability ([5]; first compound 0.253 µM): 0.48
relative viability ([5]; first compound 0.8 µM): 0.318
relative viability ([5]; first compound 2.53 µM): 0.197
relative viability ([5]; first compound 8 µM): 0.37
relative viability ([6]; first compound 0.08 µM): 1.36
relative viability ([6]; first compound 0.253 µM): 0.545
relative viability ([6]; first compound 2.53 µM): 1.2
relative viability ([6]; first compound 8 µM): 1.16
relative viability ([7]; first compound 0.253 µM): 0.2
relative viability ([7]; first compound 0.8 µM): 0.211
relative viability ([7]; first compound 2.53 µM): 0.236
relative viability ([7]; first compound 8 µM): 0.28
relative viability ([8]; first compound 0.08 µM): 0.78
relative viability ([8]; first compound 0.253 µM): 0.794
relative viability ([8]; first compound 0.8 µM): 0.736
relative viability ([8]; first compound 2.53 µM): 0.812
relative viability ([8]; first compound 8 µM): 0.798
relative viability ([9]; first compound 0.08 µM): 0.743
relative viability ([9]; first compound 0.253 µM): 0.778
relative viability ([9]; first compound 0.8 µM): 0.733
relative viability ([9]; first compound 2.53 µM): 0.802
relative viability ([9]; first compound 8 µM): 0.686
relative viability ([10]; first compound 0.08 µM): 0.539
relative viability ([10]; first compound 0.253 µM): 0.438
relative viability ([10]; first compound 0.8 µM): 0.376
relative viability ([10]; first compound 8 µM): 0.417
relative viability ([11]; first compound 0.08 µM): 0.399
relative viability ([11]; first compound 0.8 µM): 0.333
relative viability ([11]; first compound 2.53 µM): 0.31
relative viability ([11]; first compound 8 µM): 0.398
relative viability ([12]; first compound 0.08 µM): 1.07
relative viability ([12]; first compound 0.253 µM): 1.1
relative viability ([12]; first compound 0.8 µM): 1.08
relative viability ([12]; first compound 2.53 µM): 1.13
relative viability ([12]; first compound 8 µM): 0.962
relative viability ([13]; first compound 0.08 µM): 1.14
relative viability ([13]; first compound 0.253 µM): 1.09
relative viability ([13]; first compound 0.8 µM): 1.03
relative viability ([13]; first compound 2.53 µM): 1.05
relative viability ([13]; first compound 8 µM): 1.09
relative viability ([14]; first compound 0.08 µM): 0.453
relative viability ([14]; first compound 0.253 µM): 0.423
relative viability ([14]; first compound 0.8 µM): 0.41
relative viability ([14]; first compound 2.53 µM): 0.433
relative viability ([14]; first compound 8 µM): 0.469
relative viability ([15]; first compound 0.08 µM): 0.793
relative viability ([15]; first compound 0.253 µM): 0.733
relative viability ([15]; first compound 0.8 µM): 0.679
relative viability ([15]; first compound 2.53 µM): 0.748
relative viability ([15]; first compound 8 µM): 0.5
relative viability ([16]; first compound 0.08 µM): 0.937
relative viability ([16]; first compound 0.253 µM): 0.971
relative viability ([16]; first compound 0.8 µM): 0.922
relative viability ([16]; first compound 2.53 µM): 1.07
relative viability ([16]; first compound 8 µM): 0.953
relative viability ([17]; first compound 0.08 µM): 0.248
relative viability ([17]; first compound 0.253 µM): 0.315
relative viability ([17]; first compound 0.8 µM): 0.195
relative viability ([17]; first compound 2.53 µM): 0.167
relative viability ([17]; first compound 8 µM): 0.213
relative viability ([18]; first compound 0.08 µM): 0.741
relative viability ([18]; first compound 0.253 µM): 0.716
relative viability ([18]; first compound 0.8 µM): 0.673
relative viability ([18]; first compound 2.53 µM): 0.608
relative viability ([18]; first compound 8 µM): 0.426
relative viability ([19]; first compound 0.08 µM): 0.502
relative viability ([19]; first compound 0.253 µM): 0.538
relative viability ([19]; first compound 0.8 µM): 0.58
relative viability ([19]; first compound 2.53 µM): 0.625
relative viability ([19]; first compound 8 µM): 0.387
relative viability ([20]; first compound 0.08 µM): 0.91
relative viability ([20]; first compound 0.253 µM): 0.866
relative viability ([20]; first compound 0.8 µM): 0.806
relative viability ([20]; first compound 2.53 µM): 0.757
relative viability ([20]; first compound 8 µM): 0.81
